Source: patent US11666644B2, “Peptide vaccines” (TREOS BIO LIMITED, priority 2018, dated 2023)

Each compound was assayed on metastatic ovarian adenocarcinoma (assay: Patient-A clinical outcome and tumor MRI findings (lesion responses)). Settings: SUM of lesions, Dec. 25, 2016, before PIT vaccine treatment.
Assay type: in vivo, human
Text: For treatment of Patient-A the 13 peptides were formulated as 4×3 or 4 peptide (POC01/1, POC01/2, POC01/3, POC01/4). One treatment cycle is defined as administration of all 13 peptides within 30 days.
2017-2018: Patient-A received 8 cycles of vaccination as add-on therapy, and lived 17 months (528 days) after start of the treatment. […] They died in October 2018.
Patient's tumor MRI findings (Baseline Apr. 15, 2016) (BL: baseline for tumor response evaluation on FIG. 35)
• Rapid progression in lymph nodes, hepatic, retroperitoneal and thoracic areas, significant pleural fluid and ascites. Initiate Carboplatin, Gemcitabine, Avastin. Sep. […] Nov. […] Remission in hepatic, retroperitoneal area and lymph nodes Apr. 13, 2018: Progression • Complete remission in the thoracic and retroperitoneal regions. Progression in hepatic centers and lymph nodes Jun. […] Minimal regression in hepatic centers and lymph nodes July 2018: Progression October 2018: Patient-A died Partial MRI data for Patient-A is shown in Table 23 and FIG. 35.

Compound	FU2 (% Δ from BL) [%]
O=C(c1cc(Cc2n[nH]c(=O)c3ccccc23)ccc1F)N1CCN(C(=O)C2CC2)CC1 [Olaparib]	−76.0

Same assay, conditions: lesion TL2, Dec. 25, 2016, before PIT vaccine treatment

Compound	FU2 (% Δ from BL) [%]
O=C(c1cc(Cc2n[nH]c(=O)c3ccccc23)ccc1F)N1CCN(C(=O)C2CC2)CC1 [Olaparib]	−100.0

Same assay, conditions: lesion TL2, follow up 1, Olaparib treatment May 2016-January 2017

Compound	FUI (% Δ from BL) [%]
O=C(c1cc(Cc2n[nH]c(=O)c3ccccc23)ccc1F)N1CCN(C(=O)C2CC2)CC1 [Olaparib]	−100.0

Same assay, conditions: lesion TL2, follow-up time point of best response

Compound	Best Response Cycle
O=C(c1cc(Cc2n[nH]c(=O)c3ccccc23)ccc1F)N1CCN(C(=O)C2CC2)CC1 [Olaparib]	FU1

Same assay, conditions: lesion TL4, Dec. 25, 2016, before PIT vaccine treatment

Compound	FU2 (% Δ from BL) [%]
O=C(c1cc(Cc2n[nH]c(=O)c3ccccc23)ccc1F)N1CCN(C(=O)C2CC2)CC1 [Olaparib]	−100.0

Same assay, conditions: lesion TL4, follow-up time point of best response

Compound	Best Response Cycle
O=C(c1cc(Cc2n[nH]c(=O)c3ccccc23)ccc1F)N1CCN(C(=O)C2CC2)CC1 [Olaparib]	FU2

Each compound was assayed on HLA class I (assay: PEPI3+ Test: 9 mer epitopes binding to at least 3 HLA class I of individuals in the Model Population (n=433)). Settings: B % multiplied by N % (antigen expression frequency in gastric cancers).
Design: species or system human
Text: Predicted binding between particular HLA and epitopes (9 mer peptides) was based on the Immune Epitope Database tool for epitope prediction (iedb.org).
The validated HLA-epitope binding prediction process was used to determine all HLA-epitope binding pairs described in the Examples below.
An in silico human trial cohort of 433 subjects with complete 4-digit HLA class I […] genotype (2×HLA-A*xx:xx; 2×HLA-B*xx:xx; 2×HLA-C*xx:xx) and demographic […] information was compiled. This Model Population has subjects with mixed ethnicity having a total of 152 different HLA alleles that are representative for >85% of presently known allele G-groups.
To select immunogenic peptides from the target CTAs, the PEPI3+ Test and the Model Population described in Example 8 were used to identify the 9 mer epitopes (PEPI3+s) that are most frequently presented by at least 3 HLAs of the individuals in the Model Population. These epitopes are referred to herein as “bestEPIs”. An illustrative example of the “PEPI3+ hotspot” analysis and bestEPI identification is shown in FIG. 15 for the PRAME antigen.
The reported expression frequency for each CTA was multiplied by the frequency of the PEPI3+ hotspots in the Model Population to identify the T cell epitopes (9 mers) that will induce a cytotoxic T cell response against gastric cancer antigens in the highest proportion of individuals (Table 20a). 15 mers were then selected encompassing each of the selected 9 mers (Table 20a). The 15 mers were selected to bind to most HLA class II alleles of most subjects. These 15 mers can induce both CTL and T helper responses in the highest proportion of subjects.

B % * N % [%]	Compound
7	28 (MTFGRLHRI; SSX1 9mer) [compound 28]
5	29 (RALAETSYV; MAGE-A1 9mer) [compound 29]
4	30 (HVMNPLETL; PRAME 9mer) [compound 30]

The remaining lines, values behind:

Compound	B % * N % [%]
1 (KMMKRLMTV; MAGE-C1 9mer) [compound 1]	43
2 (KMHSLLALM; CAGE-1 9mer) [compound 2]	33
3 (FSYEQDPTL; TSP50 9mer) [compound 3]	29
4 (YLRLHRHAY; DPPA2 9mer) [compound 4]	28
5 (LQYENSIML; HIWI 9mer) [compound 5]	28
6 (RAIEQLAAM; SURVIVIN 9mer) [compound 6]	26
7 (FVASINEGM; HIWI 9mer) [compound 7]	21
8 (TTMETQFPV; TSP50 9mer) [compound 8]	21
9 (LASNHFLYL; 5T4 9mer) [compound 9]	21
10 (FLYLPRDVL; 5T4 9mer) [compound 10]	21
11 (SSFSSSAPF; 5T4 9mer) [compound 11]	17
12 (FAHPRKLLM; MAGE-A2 9mer) [compound 12]	17
13 (SSNSTALAL; KK-LC-1 9mer) [compound 13]	17
14 (STNALIQPV; CAGE-1 9mer) [compound 14]	16
15 (STFKNWPFL; SURVIVIN 9mer) [compound 15]	15
16 (FSTTINYTL; MAGE-A2 9mer) [compound 16]	12
17 (ILNNFPHSI; KK-LC-1 9mer) [compound 17]	11
18 (FVQENYLEY; MAGE-A3 9mer) [compound 18]	10
19 (ITMPFSSPM; LAGE-1 9mer) [compound 19]	9
21 (YEDHFPLLF; MAGE-A10 9mer) [compound 21]	8
22 (TSYVKVLEY; MAGE-A1 9mer) [compound 22]	8
24 (NTDNNLAVY; KK-LC-1 9mer) [compound 24]	8
25 (KAMVQAWPF; PRAME 9mer) [compound 25]	7
27 (SAFPTTINF; MAGE-A1 9mer) [compound 27]	7

The compounds below were run on HLA class I in the same assay as above. Settings: N % (antigen expression frequency in lung cancers) multiplied by B %.
Design: species or system human

N % * B % [%]	Compound
28	90 (FAADVRLMF; BRDT 9mer) [compound 90]
23	91 (KAMVQAWPF; PRAME 9mer) [compound 91]
21	92 (FSWPFQRPV; BRDT 9mer) [compound 92]
19	93 (YSSFVFNLF; NALP4 9mer) [compound 93]
18	94 (RAMEAFNLV; NALP4 9mer) [compound 94]
17	95 (FVIDSFEEL; NALP4 9mer) [compound 95]
15	97 (FAHPRKLLM; MAGE-A2 9mer) [compound 97]
14	99 (YIAQFTSQF; PRAME 9mer) [compound 99]
14	100 (HVMNPLETL; PRAME 9mer) [compound 100]
13	101 (FQDFFPVIF; MAGE-A12 9mer) [compound 101]
13	102 (LLRHVMNPL; PRAME 9mer) [compound 102]
13	103 (KMMKRLMTV; DPPA2 9mer) [compound 103]
12	104 (FVLANGHIL; NY-SAR-35 9mer) [compound 104]
11	105 (MLAKKHFSY; BRDT 9mer) [compound 105]
11	106 (SVMDLVGSI; LDHC 9mer) [compound 106]
11	107 (MMDLQHGSL; LDHC 9mer) [compound 107]
10	108 (FSTTINYTL; MAGE-A2 9mer) [compound 108]
10	109 (MASESLSVM; MAGE-C2 9mer) [compound 109]
10	110 (FVYGEPREL; MAGE-C2 9mer) [compound 110]
9	112 (FVQENYLEY; MAGE-A3 9mer) [compound 112]
9	115 (YLRLHRHAY; DPPA2 9mer) [compound 115]
7	117 (SSNSTALAL; KK-LC-1 9mer) [compound 117]
7	118 (FSTSSSLIL; MAGE-C2 9mer) [compound 118]
5	119 (RALAETSYV; MAGE-A1 9mer) [compound 119]

Further lines, the compound ahead of its results:

Compound	N % * B % [%]
98 (RAIEQLAAM; SURVIVIN 9mer) [compound 98]	15
114 (STFKNWPFL; SURVIVIN 9mer) [compound 114]	9
SEQ ID NO: 111: 9 mer bestEPI of MAGE-C2 within 15 mer SEQ ID NO: 141; printed 'ill' (SVMSSNVSF; MAGE-C2 9mer)	9
